Measurements published in PubChem BioAssay (NCI).
Several values for one entry are separate records, joined by “and”; a condition that tells them apart may be missing. Identical values can stand only once.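 96-well plates; 48 h exposure; 5 concentrations. Endpoints by linear interpolation between flanking doses. Not reached: highest tested concentration assigned. At the GI50, growth is halved. TGI marks complete inhibition of growth.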

Key:
Assay in all cases: DTP human tumour cell line panel, 48 h
CCRF-CEM leukemia = tested on: CCRF-CEM leukemia
COLO 205 colon = tested on: COLO 205 colon
EKVX NSCLC = tested on: EKVX NSCLC
HL-60(TB) leukemia = tested on: HL-60(TB) leukemia
HOP-62 NSCLC = tested on: HOP-62 NSCLC
HOP-92 NSCLC = tested on: HOP-92 NSCLC
PC-3 prostate = tested on: PC-3 prostate
RXF 393 renal = tested on: RXF 393 renal
SK-MEL-5 melanoma = tested on: SK-MEL-5 melanoma
T-47D breast = tested on: T-47D breast

| Structure (SMILES) | GI50 (CCRF-CEM leukemia) [µM] | TGI (CCRF-CEM leukemia) | GI50 (COLO 205 colon) [µM] | TGI (COLO 205 colon) | GI50 (EKVX NSCLC) [µM] | TGI (EKVX NSCLC) | GI50 (HL-60(TB) leukemia) [µM] | TGI (HL-60(TB) leukemia) [µM] | GI50 (HOP-62 NSCLC) [µM] | TGI (HOP-62 NSCLC) | GI50 (HOP-92 NSCLC) [µM] | TGI (HOP-92 NSCLC) | GI50 (PC-3 prostate) [µM] | TGI (PC-3 prostate) | GI50 (RXF 393 renal) [µM] | TGI (RXF 393 renal) | GI50 (SK-MEL-5 melanoma) [µM] | TGI (SK-MEL-5 melanoma) | GI50 (T-47D breast) [µM] | TGI (T-47D breast) |
| --- | --- | --- | --- | --- | --- | --- | --- | --- | --- | --- | --- | --- | --- | --- | --- | --- | --- | --- | --- | --- |
| Cn1ccc2c3c(=O)cc[nH]c3ccc21 | > 100 | > 100 µM | > 100 | > 100 µM | > 100 | > 100 µM | > 100 | > 100 | > 100 | > 100 µM | 69.2 | > 100 µM | > 100 | > 100 µM | > 100 | > 100 µM | > 100 | > 100 µM | > 100 | > 100 µM |
| CC1=C/C(O)CC(=O)Cc2nc(co2)C(=O)N2CCC=C2C(=O)OC(C(C)C)C(C)/C=C\C(=O)NC/C=C\1 (centres undefined) | 7.35 | > 100 µM and 81.9 µM | 3.09 | 15 µM and 38.9 µM | 36.4 | > 100 µM and 53.3 µM | 14.5 | > 100 | 19.1 | > 100 µM | 18 | > 86.2 µM | 65.4 | > 100 µM | 27.8 | > 100 µM | 10.3 | 29.3 µM and > 100 µM | 8.3 | > 48.5 µM and 36.8 µM |
| COc1ccc(C2SCC(=O)N2NC(=O)C(O)c2ccccc2)cc1 (centres undefined) | > 100 | > 100 µM | > 100 | > 100 µM | > 100 | > 100 µM | > 100 | > 100 | > 100 | > 100 µM | > 100 | > 100 µM | > 100 | > 100 µM | > 100 | > 100 µM | > 100 | > 100 µM | > 100 | > 100 µM |
| OCc1ncc(-c2ccccc2)s1 | > 100 | > 100 µM | > 100 | > 100 µM | > 100 | > 100 µM | > 100 | > 100 | > 100 | > 100 µM | 76.5 | > 100 µM | > 100 | > 100 µM | > 100 | > 100 µM | > 100 | > 100 µM | > 100 | > 100 µM |
| Cc1[nH]c(=O)nc(N/N=C/c2ccc(Cl)cc2)c1C(=O)Nc1ccc(Cl)cc1 | – | > 100 µM | – | > 88.1 µM | – | > 100 µM | – | > 100 | – | 26 µM | – | 77.8 µM | – | > 100 µM | – | 32.9 µM | – | 48.4 µM | – | > 85.4 µM |
| CC(=O)OC1CC2(O)C(CCC3(C)C(c4ccc(=O)oc4)CCC32O)C2(C)CCC(OC3OC(CO)C(O)C(O)C3O)C=C12 (centres undefined) | < 0.01 | 0.115 µM | 0.0554 | 0.274 µM | 0.0135 | 0.0419 µM | 0.0232 | 0.0579 | 0.0201 | 0.144 µM | 0.0494 | 0.318 µM | 0.0248 | 0.125 µM | 0.0199 | 0.0538 µM | 0.0196 | 0.0672 µM | 0.0402 | 0.837 µM |
| O=C(O)c1nnsc1-c1csnn1 | – | > 100 µM | – | > 100 µM | – | > 100 µM | – | > 100 | – | > 100 µM | – | > 100 µM | – | > 100 µM | – | > 100 µM | – | > 100 µM | – | > 100 µM |
| Clc1ccc(N/N=C(\c2ccccc2)c2ccccn2)nc1 | 0.0454 | – | 0.0308 | 18.1 µM | 0.0726 | – | 0.0868 | – | 0.31 | > 33.7 µM and 12.3 µM | 0.445 | > 66.2 µM and 10.2 µM | 0.112 | > 67.8 µM and 28.9 µM | 0.275 | 7.38 µM and 28.5 µM | 0.32 | – | < 0.0163 | > 100 µM |
| CN(N=O)C(=O)Nc1ccc(C(=O)O)cc1 | – | > 100 µM | – | > 100 µM | – | > 100 µM | – | > 100 | – | > 100 µM | – | > 100 µM | – | > 100 µM | – | > 100 µM | – | > 100 µM | – | > 100 µM |
| O=C1c2ccccc2C(=O)c2sc(Nc3ccc(Cl)cc3)nc21 | – | 4 µM | – | 17.7 µM | – | 17.9 µM | – | 1.05 | – | 9.26 µM | 10.3 | 22.9 µM | 2.49 | 10.5 µM | – | 3.65 µM | – | 3.6 µM | 1.8 | 7.52 µM |
